Measured values reported in PubChem BioAssay (NCI).
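Interpolation was linear, between the two tested concentrations surrounding the appropriate level; five concentrations were tested over 48 hours in 96-well plates. TGI is the concentration that stops growth completely.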

Legend:
Test in all cases: NCI-60 cell line screen, 48 h
UACC-257 melanoma = system: UACC-257 melanoma
HCT-116 colon = system: HCT-116 colon
HT29 colon = system: HT29 colon
NCI-H522 lung = system: NCI-H522 lung
SNB-75 CNS = system: SNB-75 CNS
786-0 renal = system: 786-0 renal
SW-620 colon = system: SW-620 colon
SR leukemia = system: SR leukemia
EKVX NSCLC = system: EKVX NSCLC
HCC-2998 colon = system: HCC-2998 colon
NCI-H460 lung = system: NCI-H460 lung
OVCAR-5 ovarian = system: OVCAR-5 ovarian
RPMI-8226 leukemia = system: RPMI-8226 leukemia
U251 CNS = system: U251 CNS
SN12C renal = system: SN12C renal
OVCAR-3 ovarian = system: OVCAR-3 ovarian
MCF7 breast = system: MCF7 breast
NCI/ADR-RES ovarian = system: NCI/ADR-RES ovarian
ACHN renal = system: ACHN renal
MDA-N = system: MDA-N
PC-3 prostate = system: PC-3 prostate
UO-31 renal = system: UO-31 renal
OVCAR-4 ovarian = system: OVCAR-4 ovarian
CAKI-1 renal = system: CAKI-1 renal
LOX IMVI melanoma = system: LOX IMVI melanoma
UACC-62 melanoma = system: UACC-62 melanoma
NCI-H23 lung = system: NCI-H23 lung
SK-OV-3 ovarian = system: SK-OV-3 ovarian
A549 NSCLC = system: A549 NSCLC
IGROV1 ovarian = system: IGROV1 ovarian
RXF 393 renal = system: RXF 393 renal
SF-539 CNS = system: SF-539 CNS
SF-295 CNS = system: SF-295 CNS
SK-MEL-28 melanoma = system: SK-MEL-28 melanoma
BT-549 breast = system: BT-549 breast
M14 melanoma = system: M14 melanoma
KM12 colon = system: KM12 colon
HOP-92 NSCLC = system: HOP-92 NSCLC
SK-MEL-5 melanoma = system: SK-MEL-5 melanoma
HCT-15 colon = system: HCT-15 colon
MDA-MB-231 breast = system: MDA-MB-231 breast
A498 renal = system: A498 renal
DU-145 prostate = system: DU-145 prostate
HOP-62 NSCLC = system: HOP-62 NSCLC
NCI-H226 lung = system: NCI-H226 lung
OVCAR-8 ovarian = system: OVCAR-8 ovarian
SF-268 CNS = system: SF-268 CNS
MALME-3M melanoma = system: MALME-3M melanoma
HS 578T breast = system: HS 578T breast
T-47D breast = system: T-47D breast
COLO 205 colon = system: COLO 205 colon
MDA-MB-435 = system: MDA-MB-435
SK-MEL-2 melanoma = system: SK-MEL-2 melanoma
TK-10 renal = system: TK-10 renal
CCRF-CEM leukemia = system: CCRF-CEM leukemia
SNB-19 CNS = system: SNB-19 CNS
MOLT-4 leukemia = system: MOLT-4 leukemia
K-562 leukemia = system: K-562 leukemia

Compound: NC(=O)c1csc(C2(O)COC(CO)C2O)n1 (stereo not given)
- TGI (UACC-257 melanoma): > 100 µM
- TGI (HCT-116 colon): > 100 µM
- TGI (HT29 colon): > 100 µM
- TGI (NCI-H522 lung): > 100 µM
- TGI (SNB-75 CNS): > 100 µM
- TGI (786-0 renal): > 100 µM
- TGI (SW-620 colon): > 100 µM
- TGI (SR leukemia): > 100 µM
- TGI (EKVX NSCLC): > 100 µM
- TGI (HCC-2998 colon): > 100 µM
- TGI (NCI-H460 lung): > 100 µM
- TGI (OVCAR-5 ovarian): > 100 µM
- TGI (RPMI-8226 leukemia): > 100 µM
- TGI (U251 CNS): > 100 µM
- TGI (SN12C renal): > 100 µM
- TGI (OVCAR-3 ovarian): > 100 µM
- TGI (MCF7 breast): > 100 µM
- TGI (NCI/ADR-RES ovarian): > 100 µM
- TGI (ACHN renal): > 100 µM
- TGI (MDA-N): > 100 µM
- TGI (PC-3 prostate): > 100 µM
- TGI (UO-31 renal): > 100 µM
- TGI (OVCAR-4 ovarian): > 100 µM
- TGI (CAKI-1 renal): > 100 µM
- TGI (LOX IMVI melanoma): > 100 µM
- TGI (UACC-62 melanoma): > 100 µM
- TGI (NCI-H23 lung): > 100 µM
- TGI (SK-OV-3 ovarian): > 100 µM
- TGI (A549 NSCLC): > 100 µM
- TGI (IGROV1 ovarian): > 100 µM
- TGI (RXF 393 renal): > 100 µM
- TGI (SF-539 CNS): > 100 µM
- TGI (SF-295 CNS): > 100 µM
- TGI (SK-MEL-28 melanoma): > 100 µM
- TGI (BT-549 breast): > 100 µM
- TGI (M14 melanoma): > 100 µM
- TGI (KM12 colon): > 100 µM
- TGI (HOP-92 NSCLC): > 100 µM
- TGI (SK-MEL-5 melanoma): > 100 µM
- TGI (HCT-15 colon): > 100 µM
- TGI (MDA-MB-231 breast): > 100 µM
- TGI (A498 renal): > 100 µM
- TGI (DU-145 prostate): > 100 µM
- TGI (HOP-62 NSCLC): > 100 µM
- TGI (NCI-H226 lung): > 100 µM
- TGI (OVCAR-8 ovarian): > 100 µM
- TGI (SF-268 CNS): > 100 µM
- TGI (MALME-3M melanoma): > 100 µM
- TGI (HS 578T breast): > 100 µM
- TGI (T-47D breast): > 100 µM
- TGI (COLO 205 colon): > 100 µM
- TGI (MDA-MB-435): > 100 µM
- TGI (SK-MEL-2 melanoma): > 100 µM
- TGI (TK-10 renal): > 100 µM
- TGI (CCRF-CEM leukemia): > 100 µM
- TGI (SNB-19 CNS): > 100 µM

Compound: CC(C)C(CC(=O)OCC(CO)OC(=O)CC(C(C)C)C(C)C)C(C)C (stereo not given)
- TGI (UACC-257 melanoma): 31.2 µM
- TGI (HCT-116 colon): 33.4 µM
- TGI (HT29 colon): 32.1 µM
- TGI (NCI-H522 lung): 25.6 µM
- TGI (SNB-75 CNS): 21.8 µM
- TGI (786-0 renal): 27.9 µM
- TGI (SW-620 colon): 26.8 µM
- TGI (SR leukemia): > 100 µM
- TGI (EKVX NSCLC): 27 µM
- TGI (HCC-2998 colon): 30.9 µM
- TGI (NCI-H460 lung): 26.8 µM
- TGI (OVCAR-5 ovarian): 26.1 µM
- TGI (U251 CNS): 30.9 µM
- TGI (SN12C renal): 28.3 µM
- TGI (OVCAR-3 ovarian): 27.2 µM
- TGI (MCF7 breast): 33.5 µM
- TGI (MOLT-4 leukemia): 31.5 µM
- TGI (NCI/ADR-RES ovarian): 27.3 µM
- TGI (ACHN renal): 24.3 µM
- TGI (MDA-N): 30.1 µM
- TGI (PC-3 prostate): 30.3 µM
- TGI (UO-31 renal): 30.1 µM
- TGI (OVCAR-4 ovarian): 33.4 µM
- TGI (CAKI-1 renal): 25.4 µM
- TGI (K-562 leukemia): 33 µM
- TGI (UACC-62 melanoma): 32.8 µM
- TGI (NCI-H23 lung): 30.4 µM
- TGI (SK-OV-3 ovarian): 30.9 µM
- TGI (A549 NSCLC): 24 µM
- TGI (IGROV1 ovarian): 33.2 µM
- TGI (RXF 393 renal): 30.8 µM
- TGI (SF-295 CNS): 21.1 µM
- TGI (SK-MEL-28 melanoma): 30.3 µM
- TGI (BT-549 breast): 33.1 µM
- TGI (M14 melanoma): 29.5 µM
- TGI (KM12 colon): 32 µM
- TGI (HOP-92 NSCLC): 16.9 µM
- TGI (SK-MEL-5 melanoma): 24.7 µM
- TGI (HCT-15 colon): 30.7 µM
- TGI (MDA-MB-231 breast): 33.9 µM
- TGI (A498 renal): 29.8 µM
- TGI (DU-145 prostate): 28.7 µM
- TGI (HOP-62 NSCLC): 23 µM
- TGI (NCI-H226 lung): 30.1 µM
- TGI (SF-268 CNS): 27.6 µM
- TGI (MALME-3M melanoma): 28.4 µM
- TGI (HS 578T breast): 21.5 µM
- TGI (T-47D breast): 31.7 µM
- TGI (COLO 205 colon): 20 µM
- TGI (MDA-MB-435): 28.1 µM
- TGI (SK-MEL-2 melanoma): 35.2 µM
- TGI (TK-10 renal): 26.3 µM
- TGI (CCRF-CEM leukemia): 31.7 µM
- TGI (SNB-19 CNS): 28.4 µM
